Patent publication US20240261274A1, “TREATMENT OF MYC-DRIVEN CANCERS WITH GSPT1 DEGRADERS” (MONTE ROSA THERAPEUTICS, INC., priority 2021, published 2024)

Key:
[1] = molecular target: T1, Full length wild-type cereblon CRBN (Homo sapiens, UniProt Q96SW2); test: Fluorescence polarization (FP) assay indicating cereblon binding; settings: bounds stated; read-out: IC50 value
T1 construct: Full length wild-type cereblon CRBN (80.0 nM, 10 μL) was incubated in assay buffer
Procedure: Compound activity was monitored in a fluorescence polarization (FP) homogeneous assay using 1-[5-({2-[2-(2-{[2-(2,6-dioxopiperidin-3-yl)-1,3-dioxo-2,3-dihydro-1H-isoindol-4-yl]oxy}acetamido)ethoxy]ethyl}carbamoyl)pentyl]-3,3-dimethyl-2-[(1E,3E)-5-[(2E)-1,3,3-trimethyl-5-sulfo-2,3-dihydro-1H-indol-2-ylidene]penta-1,3-dien-1-yl]-3H-indol-1-ium-5-sulfonate as a fluorescent probe. Unless otherwise stated, all reagents were purchased from Sigma Aldrich. Enzymatic reactions were conducted in Perkin-Elmer Black 384 well ProxiPlate Plus (catalogue no. 6008269) in 10 μL total volume. Full length wild-type cereblon CRBN (80.0 nM, 10 μL) was incubated in assay buffer containing 20 mM HEPES (pH 8.0), […], 0.5 mM TCEP and 0.05% Tween 20 in the presence or absence of compound (300 nL). Inhibitors were stored as 10 mM DMSO stocks in an inert environment (low humidity, dark, low oxygen, room temperature) using the Storage Pod System. Compounds and DMSO were dispensed using the Echo E5XX (Labcyte Inc. USA) to give concentrations from 300 to 0.937 or 3000 to 9.3 nM in a 12 data point curve. […] Following incubation at room temperature for 30 min, the assay was initiated by dispensing the probe to a final concentration of 5 nM (2.5 nL of a 20 μM stock) using the Echo E5XX. FP was measured after a period of 12 hours using a Pherastar plate reader (BMG Labtech, Germany) exciting at 590 nm and measuring the amount of parallel and perpendicular light at 675 nm. The FP signal was subsequently normalized to the no-compound control (i.e., DMSO). Analysis and IC50 values were derived using Dotmatics (Dotmatics UK) software.

[2] = tested on: HMEC engineered to express c-Myc tagged with EGFP; test: 3D spheroid assay, myc-HMEC (CellTiterGlo3D); format: cell-based; settings: Homo sapiens, bounds (codes D and E), read-out: EC50 value
Procedure: Human mammary epithelial cells (HMEC) were engineered to express either c-Myc tagged with EGFP or EGFP alone (non myc) (analogous but distinct from Kessler J D et al, Science. 2012 Jan. 20; 335(6066):348-53. doi: 10.1126/science.1212728; Hsu T Y et al, Nature. 2015 Sep. 17; 525(7569):384-8. doi: 10.1038/nature14985). The engineered cells were seeded at 1000 (myc) or 4000 (non myc) cells/well in a 384 ultra-low attachment plate in a total volume of 40 μL HMEC cell culture media (DMEM/F12+10% HI-FBS+15 mM HEPES+0.5 ug/ml Hydrocortisone+10 ug/ml Insulin+20 ng/ml EGF). Plates were spun at 1200 rpm for 5 minutes at room temperature to ensure that cells have gathered in the middle of the well and incubated at 37° C. for 48 hrs before firing with compounds. On Day 2 (48 h post seeding) cells were imaged (brightfield and EGFP fluorescence) using the Celigo imaging cytometer prior to firing compounds. For primary screens, compounds were added at three concentrations (1.25, 10 and 30 uM) in a volume of 120 nL using the ECHO acoustic dispenser and spun at 2000 rpm for 2 minutes at room temperature before incubating at 37° C. for 5 days. […] On Day 7, prior to measuring cell viability using CellTiterGlo3D, cells were imaged (brightfield and EGFP fluorescence) on the Celigo imaging cytometer. The CellTiterGlo3D reagent is added at 30 uL/well and incubated at room temperature for 30 mins. After 30 mins of incubation, luminescence readings were recorded using the Perkin Elmer EnVision reader.

IKZF1 = molecular target: T2, IKZF1 (Homo sapiens, UniProt Q13422+Q96SW2); test: Selectivity western blot assay in MM1 S cells, IKZF1; format: cell-based; parameters: key: A represents no degradation observed at 30 μM; B represents trace degradation at 30 μM (below 20%); C represents weak degradation at 30 μM (below 50%); D represents degradation at 30 μM (>90%); E represents degradation at 3 μM (>90%); F represents degradation at 0.3 μM (>90%); settings: MM1 S cells, 0.3, 3 and 30 μM, 6 hours
T2 construct: endogenous in cells; host or cells: MM1 S (ATCC CRL-2974)
Procedure: (§1) MM1 S cells were purchased from ATCC (cat. Number CRL-2974), sub-cultured in 90% RPMI 1640 with 10% FBS, supplemented with 1×P/S and incubated at 37° C., 5% CO2. Compounds were stored as 10 mM DMSO stock. For the assay, MM1 S cells (3 million cells/well) were plated in 6-well plates and incubated over night. Cells were treated with respective compounds using a serial dilution: 0.3 μM, 3 μM and 30 μM as well as a vehicle only (DMSO) control for 6 hours. Media with suspension cells was subsequently transferred to 15 mL conical tubes, wells rinsed twice with ice-cold PBS and merged with cell suspension in respective 15 mL conical tube. Cells were spinned down, supernatant aspirated, pellets resuspended in ice-cold PBS and transferred to microtubes. Cells were spinned down, supernatant aspirated and pellets resuspended in 120 μL RIPA lysis buffer supplemented with protease and phosphatase inhibitors. Cell lysates were incubated on ice for 20 minutes followed by centrifugation at >20,000×g for 5 min. Supernatants were transferred to fresh microtubes and stored at −80° C. Total protein concentration was determined using a BCA assay with a BSA standard curve and concentration of all samples was adjusted to 1 mg/mL. 25 μL 4×LDS sample buffer supplemented with 100 mM DTT was added to 75 μL sample. Samples were centrifuged (8,000×g, 1 min) and incubated at 95° C. for 5 min followed by another centrifugation step (8,000×g, 1 min). 20 μL of each sample was loaded on a 4-12% gel alongside a protein molecular weight marker. Gels were run in the presence of MOPS buffer at 80 Volts for 30 min, followed by 120 Volts for 1.5 h and proteins subsequently transferred onto nitrocellulose membranes at 20 Volts for 7 min using an iBlot2 Gel Transfer Device. Membranes were then cut horizontally into two pieces, covering 80-50 kDa and 50-25 kDa. Blocking the membranes was performed by gently shaking in 5% (w/v) skim milk in TSB-T for 1 hr at room temperature. All primary antibodies were used at a 1/1000 in 5% (w/v) BSA dissolved in TBST and incubated with membranes over night at 4° C. After three washes with 1×TBST for 5 min, HRP-coupled secondary antibodies diluted in 5% (w/v) BSA/TBST (Goat Anti-Rb IgG, dil. 1/10,000; Goat Anti-Mouse IgG, dil. 1/5000) were added for 1 hr at room temperature. After three washes with 1×TBST (5 minutes each), membranes were incubated with ECL reagent for 1 min at room temperature. Chemiluminescence signals were then detected using a LAS-4000 system with default settings and signals quantified using Image Studio Lite software (version 5.2). Membrane parts previously incubated with antibody against CK1 alpha were stripped off antibodies by incubating with stripping buffer for 30 minutes followed by three washed with TBST (5 min each), blocking with 5% (w/v) skim milk for 1 hr, and incubation with primary antibody against uGAPDH overnight at 4° C. Subsequent washes, incubation with secondary antibody and signal acquisition were performed as described above.

IKZF3 = molecular target: T3, IKZF3 (Homo sapiens, UniProt Q96SW2+Q9UKT9); test: Selectivity western blot assay in MM1 S cells, IKZF3; format: cell-based; parameters: key: A represents no degradation observed at 30 μM; B represents trace degradation at 30 μM (below 20%); C represents weak degradation at 30 μM (below 50%); D represents degradation at 30 μM (>90%); E represents degradation at 3 μM (>90%); F represents degradation at 0.3 μM (>90%); settings: MM1 S cells, 0.3, 3 and 30 μM, 6 hours
T3 construct: endogenous in cells; host or cells: MM1 S (ATCC CRL-2974)
Procedure: as §1

GSPT1 [3] = molecular target: T4, GSPT1 (Homo sapiens, UniProt P15170+Q96SW2); test: Selectivity western blot assay in MM1 S cells, GSPT1; format: cell-based; parameters: endogenous in cells; host or cells: MM1 S (ATCC CRL-2974); settings: MM1 S cells, 0.3, 3 and 30 μM, 6 hours
Procedure: as §1

GSPT1 [4] = molecular target: T4, GSPT1; test: GSPT1 degradation immunofluorescence assay in CAL-51 cells; format: cell-based; parameters: endogenous in cells; host or cells: CAL-51 (DSMZ ACC302); settings: 6 hours, Table 5A, read-out: Activity for GSPT1 degradation, Code (DC50)
Procedure: CAL-51 cells were purchased from DSMZ (cat. Number ACC302), sub-cultured in 90% Dulbecco's MEM (4.5 g/L glucose, Gibco 11965)+10% heat inactivated FBS (BioConcept, 2-01F1361) and incubated at 37° C., 5% CO2. For the assay, imaging microtiterplate Cell Carrier 96 Ultra (Perkin Elmer 6055302) were pre-coated with Fibronectin (Sigma F085, 30 μl at 0.2 μg/ml) in PBS (100 μl, Gibco 14190) for 45 min at room temperature, rinsed with PBS and CAL-51 cells (30K cells/well) were plated and let to adhere overnight. Cells were treated with compounds typically using a serial dilution ranging from 30 μM to 0.1 nM for 6 hours. Compounds were stored at 10 mM DMSO stocks. Vehicle (DMSO), positive (CC-885, 10 μM) and rescue controls (positive control plus 0.2 μM bortezomib) were also included at this stage. Cells were subsequently rinsed with PBS and fixed in 10% Formalin solution (50 μl, Sigma HT5011)) for 20 mins at room temperature. Following three consecutive PBS washes (100 μl), cells were permeabilized in 0.1% Triton X-100 in PBS (Sigma 93443, 50 μl) for 15 mins at room temperature. Following three further PBS washes, 50 μl blocking buffer (1% BSA, Sigma A4503, in PBS) was added for 45 min for signal-to-noise reduction. Primary antibody (human GSPT1, Sigma HPA052488) was diluted in blocking buffer (dil. 1/300, 35 μl/well) and incubated with the cells overnight at 4° C. After three PBS washes, Alexa-fluor 488 coupled secondary antibodies (Invitrogen, A32731, dil. 1/1000), Alexa-fluor 647-Phalloidin (Invitrogen, A22287, dil. 1/200) and DAPI (Thermo, #62248, dil. 1/1000) were diluted in blocking buffer and incubated with the samples for 2 hours at room temperature. After three final PBS washes, samples were conserved in 100 μl PBS in the dark, until measurement. Image acquisition was performed on the Operetta High-Content Imager (Perkin-Elmer). Fluorescence intensity of Alexa-Fluor 488 (GSPT1), Alexa-Fluor 647 (Actin) and DAPI (Nucleus) were measured. For the determination of GSPT1 DC50 values, a custom algorithm implemented in the PerkinElmer image analysis software Harmony-Acapella® was developed. After user-defined setting of adjustment parameters, the analysis was run identically without human intervention for all image fields. DAPI staining of the nuclei was used to determine the location of cells using standard nuclei detection modules. Segmentation artifacts were removed by threshold-based filters for area, roundness and intensity. The outline of the cells was determined analogously from the sum of the normalized, smoothed DAPI and Actin channel, starting from each nucleus. The Alexa-Fluor 488 (GSPT1) signal intensity in each cell was finally measured, in order to obtain a Mean intensity per cell. GSPT1 degradation (DC50) was calculated after normalization to controls and data import in CDD vault Database, using non-linear regression.

ZFP91 = molecular target: T5, ZFP91 (Homo sapiens, UniProt Q96JP5+Q96SW2); test: Selectivity western blot assay in MM1 S cells, ZFP91; format: cell-based; settings: MM1 S cells, 0.3, 3 and 30 μM, 6 hours
T5 construct: endogenous in cells; host or cells: MM1 S (ATCC CRL-2974)
Procedure: as §1

CK1alpha = molecular target: T6, CK1alpha (Homo sapiens, UniProt P48729+Q96SW2); test: Selectivity western blot assay in MM1 S cells, CK1alpha; format: cell-based; settings: MM1 S cells, 0.3, 3 and 30 μM, 6 hours
T6 construct: endogenous in cells; host or cells: MM1 S (ATCC CRL-2974)
Procedure: as §1

T1 sequence (Q96SW2 whole entry): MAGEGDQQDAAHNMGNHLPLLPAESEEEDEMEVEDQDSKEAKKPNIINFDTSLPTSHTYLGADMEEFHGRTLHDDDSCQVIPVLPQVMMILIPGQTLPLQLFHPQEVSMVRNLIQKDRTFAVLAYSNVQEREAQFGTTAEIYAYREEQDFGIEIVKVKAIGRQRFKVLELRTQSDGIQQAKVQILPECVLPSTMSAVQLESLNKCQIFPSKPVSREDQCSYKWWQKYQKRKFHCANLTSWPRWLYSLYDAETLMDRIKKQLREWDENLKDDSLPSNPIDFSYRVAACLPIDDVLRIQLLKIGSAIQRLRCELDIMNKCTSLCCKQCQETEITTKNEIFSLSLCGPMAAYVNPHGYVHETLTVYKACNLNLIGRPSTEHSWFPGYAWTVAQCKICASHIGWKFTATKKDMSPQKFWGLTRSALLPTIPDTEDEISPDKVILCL
T4 sequence (P15170 whole entry): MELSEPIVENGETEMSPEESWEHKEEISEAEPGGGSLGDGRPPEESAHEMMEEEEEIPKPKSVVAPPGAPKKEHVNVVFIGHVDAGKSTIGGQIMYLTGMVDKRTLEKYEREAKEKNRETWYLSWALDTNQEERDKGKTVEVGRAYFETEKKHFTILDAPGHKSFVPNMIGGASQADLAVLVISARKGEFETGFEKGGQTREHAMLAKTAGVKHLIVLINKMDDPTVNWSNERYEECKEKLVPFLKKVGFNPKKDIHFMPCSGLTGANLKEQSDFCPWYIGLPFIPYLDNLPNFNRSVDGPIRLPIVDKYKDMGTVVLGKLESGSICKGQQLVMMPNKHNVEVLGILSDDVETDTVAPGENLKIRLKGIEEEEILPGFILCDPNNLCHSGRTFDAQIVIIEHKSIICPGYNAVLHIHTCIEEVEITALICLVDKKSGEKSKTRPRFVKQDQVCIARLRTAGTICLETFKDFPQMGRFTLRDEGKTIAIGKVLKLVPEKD
T4 sequence (Q96SW2 whole entry): as the sequence (Q96SW2 whole entry) above
T4 sequence (Q16531 whole entry partner): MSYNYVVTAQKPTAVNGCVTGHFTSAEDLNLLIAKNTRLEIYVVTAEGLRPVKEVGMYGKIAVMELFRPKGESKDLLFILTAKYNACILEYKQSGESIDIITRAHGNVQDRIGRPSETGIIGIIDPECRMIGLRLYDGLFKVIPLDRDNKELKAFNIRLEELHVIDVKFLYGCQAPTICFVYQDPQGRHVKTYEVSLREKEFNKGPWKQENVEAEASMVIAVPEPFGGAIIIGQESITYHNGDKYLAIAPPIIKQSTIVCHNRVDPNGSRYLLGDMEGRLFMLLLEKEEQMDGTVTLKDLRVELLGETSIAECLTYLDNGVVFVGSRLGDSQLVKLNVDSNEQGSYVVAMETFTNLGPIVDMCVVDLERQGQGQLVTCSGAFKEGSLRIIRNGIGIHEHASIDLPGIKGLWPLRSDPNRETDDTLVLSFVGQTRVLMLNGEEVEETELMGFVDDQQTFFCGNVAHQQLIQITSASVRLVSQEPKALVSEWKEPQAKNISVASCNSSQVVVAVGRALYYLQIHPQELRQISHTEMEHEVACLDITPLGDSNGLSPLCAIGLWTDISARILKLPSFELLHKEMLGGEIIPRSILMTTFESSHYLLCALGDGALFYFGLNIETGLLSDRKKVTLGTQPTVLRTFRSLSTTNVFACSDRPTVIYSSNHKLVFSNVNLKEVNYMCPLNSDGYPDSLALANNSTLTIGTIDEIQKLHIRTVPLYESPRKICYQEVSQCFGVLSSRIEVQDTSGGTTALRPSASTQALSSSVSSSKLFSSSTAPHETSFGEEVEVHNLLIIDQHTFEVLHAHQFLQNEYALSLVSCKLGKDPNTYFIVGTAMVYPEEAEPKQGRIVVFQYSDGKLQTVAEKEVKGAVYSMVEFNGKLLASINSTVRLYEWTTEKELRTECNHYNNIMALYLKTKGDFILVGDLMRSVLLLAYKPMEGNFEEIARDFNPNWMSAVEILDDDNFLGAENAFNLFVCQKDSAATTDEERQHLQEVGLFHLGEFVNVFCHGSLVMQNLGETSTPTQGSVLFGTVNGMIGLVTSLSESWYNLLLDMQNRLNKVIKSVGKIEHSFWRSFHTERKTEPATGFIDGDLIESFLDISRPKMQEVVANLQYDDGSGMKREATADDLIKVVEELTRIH
T5 sequence (Q96JP5 whole entry): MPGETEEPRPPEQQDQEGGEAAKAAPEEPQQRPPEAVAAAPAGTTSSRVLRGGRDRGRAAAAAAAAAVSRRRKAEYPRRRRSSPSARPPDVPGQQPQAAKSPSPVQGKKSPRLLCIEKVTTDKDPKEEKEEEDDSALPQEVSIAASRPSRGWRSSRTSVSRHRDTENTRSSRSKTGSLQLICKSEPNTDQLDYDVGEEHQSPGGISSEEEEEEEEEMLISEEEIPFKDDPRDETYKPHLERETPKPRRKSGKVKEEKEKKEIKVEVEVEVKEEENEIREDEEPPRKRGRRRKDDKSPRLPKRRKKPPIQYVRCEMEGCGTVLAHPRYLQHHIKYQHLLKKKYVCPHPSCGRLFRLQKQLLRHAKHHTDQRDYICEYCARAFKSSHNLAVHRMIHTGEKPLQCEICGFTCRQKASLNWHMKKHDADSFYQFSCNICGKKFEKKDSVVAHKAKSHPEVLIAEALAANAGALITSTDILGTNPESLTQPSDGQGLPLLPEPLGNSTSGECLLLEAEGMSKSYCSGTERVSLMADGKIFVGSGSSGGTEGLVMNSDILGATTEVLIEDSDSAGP
T5 sequence (Q96SW2 whole entry): as the sequence (Q96SW2 whole entry) above
T5 sequence (Q16531 whole entry partner): as the sequence (Q16531 whole entry partner) above
T6 sequence (P48729 whole entry): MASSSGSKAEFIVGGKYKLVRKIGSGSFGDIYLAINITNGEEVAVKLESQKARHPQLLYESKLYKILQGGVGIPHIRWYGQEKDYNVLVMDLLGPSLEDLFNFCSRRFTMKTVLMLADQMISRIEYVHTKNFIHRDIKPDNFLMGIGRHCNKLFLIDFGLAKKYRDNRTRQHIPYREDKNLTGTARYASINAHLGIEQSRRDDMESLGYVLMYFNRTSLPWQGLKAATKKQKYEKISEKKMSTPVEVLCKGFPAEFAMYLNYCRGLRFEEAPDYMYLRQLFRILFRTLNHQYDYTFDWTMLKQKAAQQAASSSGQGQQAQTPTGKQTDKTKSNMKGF
T6 sequence (Q96SW2 whole entry): as the sequence (Q96SW2 whole entry) above
T6 sequence (Q16531 whole entry partner): as the sequence (Q16531 whole entry partner) above
T3 sequence (Q9UKT9 whole entry): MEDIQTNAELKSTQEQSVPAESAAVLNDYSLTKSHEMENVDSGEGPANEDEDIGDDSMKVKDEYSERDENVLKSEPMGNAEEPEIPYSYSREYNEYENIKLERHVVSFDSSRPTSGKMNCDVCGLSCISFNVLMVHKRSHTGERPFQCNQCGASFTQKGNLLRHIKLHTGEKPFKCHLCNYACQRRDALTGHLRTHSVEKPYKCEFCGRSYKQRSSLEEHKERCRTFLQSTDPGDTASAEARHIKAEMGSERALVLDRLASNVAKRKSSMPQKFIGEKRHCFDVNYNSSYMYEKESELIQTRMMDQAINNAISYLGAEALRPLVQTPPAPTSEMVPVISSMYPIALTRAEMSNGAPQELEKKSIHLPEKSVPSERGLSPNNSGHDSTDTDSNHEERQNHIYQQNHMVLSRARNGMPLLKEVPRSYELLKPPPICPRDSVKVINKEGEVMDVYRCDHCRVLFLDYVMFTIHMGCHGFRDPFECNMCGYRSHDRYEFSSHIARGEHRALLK
T3 sequence (Q96SW2 whole entry): as the sequence (Q96SW2 whole entry) above
T3 sequence (Q16531 whole entry partner): as the sequence (Q16531 whole entry partner) above
T2 sequence (Q13422 whole entry): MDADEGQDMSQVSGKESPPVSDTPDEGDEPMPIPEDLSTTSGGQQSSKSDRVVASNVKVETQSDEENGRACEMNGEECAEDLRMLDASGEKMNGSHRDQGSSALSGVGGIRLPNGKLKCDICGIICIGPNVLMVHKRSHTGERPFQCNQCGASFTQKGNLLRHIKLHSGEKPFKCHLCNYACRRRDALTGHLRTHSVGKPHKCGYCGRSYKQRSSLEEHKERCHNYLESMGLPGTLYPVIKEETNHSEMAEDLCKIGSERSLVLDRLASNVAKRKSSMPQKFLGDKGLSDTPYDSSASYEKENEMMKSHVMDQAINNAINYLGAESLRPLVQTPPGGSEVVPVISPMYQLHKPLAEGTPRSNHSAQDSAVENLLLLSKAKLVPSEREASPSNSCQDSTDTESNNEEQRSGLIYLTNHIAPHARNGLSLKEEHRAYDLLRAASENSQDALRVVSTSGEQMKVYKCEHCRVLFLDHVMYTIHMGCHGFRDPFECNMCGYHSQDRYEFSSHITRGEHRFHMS
T2 sequence (Q96SW2 whole entry): as the sequence (Q96SW2 whole entry) above
T2 sequence (Q16531 whole entry partner): as the sequence (Q16531 whole entry partner) above

Cc1cc(C)cc(NC(=O)NCc2ccc3c(c2)C(=O)N(C2CCC(=O)NC2=O)C3)c1 (stereo not shown) [Compound 20]
IC50 [1]: < 600 nM
EC50 [2]: ≤ 2000 nM

CCc1cccc(NC(=O)NCc2ccc3c(c2)C(=O)N(C2CCC(=O)NC2=O)C3)c1 (stereo not shown) [Compound 31]
EC50 [2]: ≤ 2000 nM

O=C1CCC(N2Cc3ccc(CNC(=O)Nc4ccc(Cl)c(Cl)c4)cc3C2=O)C(=O)N1 (stereo not shown) [Compound 46]
IC50 [1]: < 600 nM
EC50 [2]: ≤ 2000 nM

O=C1CCC(N2Cc3ccc(CNC(=O)Nc4cccc(C(F)(F)F)c4)cc3C2=O)C(=O)N1 (stereo not shown) [Compound 47]
IC50 [1]: < 600 nM
EC50 [2]: ≤ 2000 nM

COc1ccc(NC(=O)NCc2ccc3c(c2)C(=O)N(C2CCC(=O)NC2=O)C3)cc1Cl (stereo not shown) [Compound 59]
IC50 [1]: < 600 nM
EC50 [2]: ≤ 2000 nM

Cc1ccc(NC(=O)NCc2ccc3c(c2)C(=O)N(C2CCC(=O)NC2=O)C3)cc1C (stereo not shown) [Compound 68]
EC50 [2]: ≤ 2000 nM

O=C1CCC(N2Cc3ccc(COC(=O)Nc4cccc(OC(F)(F)F)c4)cc3C2=O)C(=O)N1 (stereo not shown) [Compound 203]
IKZF1 degradation (IKZF1): A
IKZF3 degradation (IKZF3): A
GSPT1 degradation (GSPT1 [3]): F (F represents degradation at 0.3 μM (>90%))
DC50 (GSPT1 [4]): ≤ 30 nM
ZFP91 degradation (ZFP91): B (B represents trace degradation at 30 μM (below 20%))
CK1alpha degradation (CK1alpha): B (B represents trace degradation at 30 μM (below 20%))
